Data taken from patent US9952300B2, “Dynamic contrast enhanced MRI method and agents for the assessment of the macromolecular transport within pathologic tissues” (BRACCO IMAGING S.P.A., priority 2012, dated 2018).
Several values for one entry are separate records, joined by “and”; a condition that tells them apart may be missing. Identical values can stand only once.

Tests used:
[1] = molecular target: Human Serum Albumin (Homo sapiens, UniProt P02768); settings: literature; cited from earlier work
[2] = tested on: PC-3 human prostate adenocarcinoma tumor; test: DCE-MRI of contrast agent kinetics in PC-3 tumors of Axitinib- or vehicle-treated mice (Example 3); assay type: in vivo, NCR athymic nude mice; settings: contrast agent 100 μmol/kg i.v., one value per animal, trisodium salt
Description: The comparative test has been performed using NCR athymic nude mice implanted with PC-3 cells (a human prostate cancer line) and treated with Axitinib®, a VEGFRs inhibitor, (to modulate the tumor vascular permeability) by a protocol which timing is for instance schematized in FIG. 1. Scope of the test was to compare the image-based analysis of the albumin distribution in a human tumor model as extracted from the analysis of a time-serie of MRI images (with spatial resolution of around 110 μm) acquired with the method of the invention after injection of B22956/1 as contrast agent, and the distribution of FITC-BSA (Fluorescent isothiocyanate Bovine Serum Albumin) albumin inside and outside vessels histologically determined from fluorescent microscopy images on a scale of microns.
In particular, the trans-endothelial permeability (K^Trans) and the fractional plasma volume (fPV) were calculated from dynamic MR data by application of a bi-compartmental pharmacokinetic model, while the Initial Area Under the Curve (IAUCT) was calculated in several time windows, typically comprised between the contrast agent administration and the end of the MRI acquisition. The macromolecular penetration in tumors was, then, probed by fluorescently labelled Bovine Serum Albumin administered via tail vein after the last MRI session. Microscopic images were used to quantify the percentage of area stained by fluorescent albumin in the tumor, as a measure of the blood vessel density, using an automatic thresholding method. The albumin extravasation in the tumor extravascular space was assessed based on the fluorescence found out of the blood vessels from histological samples taken from both of tumor rim and core, for instance as schematized in FIG. 2. In particular, the albumin florescence was averaged over all pixels at a given distance from the nearest vessel and stored as a function of distance from the vessels walls, by use of an optimized procedure, for instance schematized in FIG. 3, providing both a quantification of the availability of the albumin in the extravascular space of the concerned tumor, namely the amount of the extravasated FITC-Albumin, and the decay of its concentration over the distance x from a nearest vessel, or, in other words, its actual distribution and dilution within the extracellular spaces (for instance as schematized in FIG. 4).
Human prostate adenocarcinoma cells (PC-3) were supplied by ATCC (American Type Culture Collection) and grown in Hams F-12 medium supplemented with 10% foetal bovine serum, 2 mM glutamine, 100 IU/mL penicillin and 100 μg/mL streptomycin (all from Lonza, Verviers, Belgium). […] Tumour development was followed by palpation and measured by calliper every 2-3 days until the end of the experiment. […]

[3] = tested on: A431 human epidermoid carcinoma xenografts; test: Fluorescence microscopy of Cy5-CTX distribution in A431 xenografts after PTX or vehicle (Example 5); assay type: in vivo, NCR athymic nude mice
Protocol: Cy5-CTX: The fluorescently labeled monoclonal Antibody (mAb) was prepared in house, by conjugating the monoclonal antibody (3.51 mg/mL in citrate-TEA buffer, obtained by buffer exchange from the commercial glycine solution of the mAb) with the commercially available fluorescent cyanine Cy5-NHS ester by using typical and well experienced procedures known in the art. Molar ratio dye/mAb in the conjugated product=2. Albumin-Fluoresceinisothiocyanate: (Albumin-FITC, by Sigma-Aldrich, 10 mg/mL solution). Optical Imaging Protocol […]
Forty-five histological images were acquired, corresponding to approximately 3 sections per tumor. Each image consisted in a stack of two channels corresponding to the fluorescence signal obtained from the dye Cyanine 5 (Cy5) and Fluorescein isothiocyanate (FITC).
The spatial distribution of the Cy5-CTX staining was analyzed calculating for each pixel its distance from the nearest vessel wall using FITC-Alb images (Distance Map FIG. 9 panel c). In the corresponding Cy5-CTX image, the Cy5-CTX signal was then expressed as a function of the pixel distance from the vessel wall (CTX decay curve). […]
Fluorescent CTX decay curves were measured for each tumor section acquired by fluorescence microscopy over distances ranging from 0 to about 700 μm from the nearest vessel wall. […]

Sequence of Human Serum Albumin (P02768 25-609): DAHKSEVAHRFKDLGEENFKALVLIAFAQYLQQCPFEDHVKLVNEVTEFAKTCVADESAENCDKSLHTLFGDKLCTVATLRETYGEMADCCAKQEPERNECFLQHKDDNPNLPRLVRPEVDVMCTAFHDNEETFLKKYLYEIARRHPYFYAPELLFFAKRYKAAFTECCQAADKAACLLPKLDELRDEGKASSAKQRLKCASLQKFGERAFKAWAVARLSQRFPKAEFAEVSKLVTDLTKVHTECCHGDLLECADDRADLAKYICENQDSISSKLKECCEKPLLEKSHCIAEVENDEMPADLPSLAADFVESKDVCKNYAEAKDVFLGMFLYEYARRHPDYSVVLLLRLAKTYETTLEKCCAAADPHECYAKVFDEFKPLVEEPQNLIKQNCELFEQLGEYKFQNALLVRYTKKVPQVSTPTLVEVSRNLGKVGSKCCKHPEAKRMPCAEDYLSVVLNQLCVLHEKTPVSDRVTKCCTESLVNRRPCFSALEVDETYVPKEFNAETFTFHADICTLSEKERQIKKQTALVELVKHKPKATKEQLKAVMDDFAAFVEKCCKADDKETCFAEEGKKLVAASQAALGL

Structure (SMILES)	non-covalent binding with Human Serum Albumin [1]	kTrans (Transfer Constant) ([2]; tumor core)	kTrans (Transfer Constant) ([2]; tumor rim)	Cy5-CTX fluorescence (fAUC), treated versus untreated tumors ([3]; between 400 and about 700 μm from the nearest vessel wall)	Cy5-CTX fAUC, treated versus untreated tumors ([3]; whole tested range from 0 to 700 μm)
C[C@H](CCC(=O)[O-])[C@H]1CC[C@H]2[C@@H]3CC[C@@H]4C[C@@H](NC(=O)CC[C@@H](C(=O)[O-])N(CCN(CC(=O)[O-])CC(=O)[O-])CCN(CC(=O)[O-])CC(=O)[O-])CC[C@]4(C)[C@H]3C[C@H](O)[C@]12C.[Gd+3].[Na+].[Na+].[Na+] [B22956/1, Gadocoletic acid trisodium salt]	about 95%	1.09 mL\(min × g) × 100 and 0.98 mL\(min × g) × 100 (2×) and 0.40 mL\(min × g) × 100 (2×) and 1.81 mL\(min × g) × 100 and 0.31 mL\(min × g) × 100 and 0.95 mL\(min × g) × 100 and 0.44 mL\(min × g) × 100 and 1.77 mL\(min × g) × 100 and 1.82 mL\(min × g) × 100 and 1.57 mL\(min × g) × 100 and 1.29 mL\(min × g) × 100 and 1.85 mL\(min × g) × 100 and 1.20 mL\(min × g) × 100	2.45 mL\(min × g) × 100 and 1.91 mL\(min × g) × 100 (2×) and 0.83 mL\(min × g) × 100 and 2.30 mL\(min × g) × 100 and 1.06 mL\(min × g) × 100 and 1.76 mL\(min × g) × 100 and 1.33 mL\(min × g) × 100 and 3.00 mL\(min × g) × 100 and 1.68 mL\(min × g) × 100 and 2.77 mL\(min × g) × 100 and 2.15 mL\(min × g) × 100 and 2.37 mL\(min × g) × 100 and 1.17 mL\(min × g) × 100 and 3.22 mL\(min × g) × 100 and 2.24 mL\(min × g) × 100		
CC(=O)O[C@H]1C(=O)[C@@]2(C)[C@H]([C@H](OC(=O)c3ccccc3)[C@]3(O)C[C@H](OC(=O)[C@H](O)[C@@H](NC(=O)c4ccccc4)c4ccccc4)C(C)=C1C3(C)C)[C@]1(OC(C)=O)CO[C@@H]1C[C@@H]2O [PTX, Paclitaxel]				higher fluorescence	No differences
